In patent US10758513B2, “Modulators of mitochondrial protein import” (THE REGENTS OF THE UNIVERSITY OF CALIFORNIA, priority 2011, dated 2020):
≈ marks a conversion by molar mass, not a printed value.

How the values were obtained:
HEK293 cells = test: Treatment of HEK293 cells with MitoBloCK-6; format: cell-based; settings: unpublished data
Procedure: For microscopy experiments, HeLa or HEK293 cells were transiently transfected with Su9-EGFP (Lipofectamine, Invitrogen) at 80% confluency. 12 hours post transfection, cells were co-labeled with Mitotracker red CMXRos (Invitrogen) and visualized with a microscope (Axiovert 200M Carl Zeiss) using a Plan-Fluor 63× oil objective. Images were acquired at room temperature with a charge-coupled device camera (ORCA ER, Hamamatsu Photonics) controlled by Axiovision software (Carl Zeiss). Image files were processed by Photoshop software (Adobe). […] For cyt c release assays, a cell fractionation kit (MitoSciences) was used. Briefly, HeLa or HEK293 cells were grown in 10 cm^2 dishes to 80% confluency and then cells were treated with DMSO or MitoBloCK-6 in complete medium for 12-16 h. […] Cells were fractionated to obtain cytosolic and mitochondrial fractions; 100 μg of each fraction was analyzed by SDS-PAGE. Blots were probed with ApoTrack cyt c apoptosis antibody cocktail (MitoSciences).

Δpdr5Δsnq2 yeast strain = test: Yeast growth inhibition (MIC50), Δpdr5Δsnq2 strain; format: cell-based; settings: Saccharomyces cerevisiae, ethanol-glycerol media, 25° C., 40 hours
Procedure: For MIC50 analysis in the yeast strains, serial dilution of MitoBloCK-6 (0.5 μl) was pinned into assay plate wells containing 50 μl of yeast (Table 2) in rich ethanol-glycerol media (starting OD600=0.0002). Plates were then incubated at 25° C. in a humidified chamber for 40 hours. Each plate was shaken in a Beckman orbital shaker to resuspend settled cells, and the OD600 in each well was read by a Wallac Victor plate reader (Perkin Elmer).

ALR = molecular target: T1, ALR (Homo sapiens, UniProt P55789); test: In vitro ALR activity, Amplex Red-HRP assay; format: biochemical
T1 construct: Recombinant long form ALR, residues 1 to 205, was purified under native conditions; made in house
T1 sequence (P55789 whole entry, the tested form may be a part): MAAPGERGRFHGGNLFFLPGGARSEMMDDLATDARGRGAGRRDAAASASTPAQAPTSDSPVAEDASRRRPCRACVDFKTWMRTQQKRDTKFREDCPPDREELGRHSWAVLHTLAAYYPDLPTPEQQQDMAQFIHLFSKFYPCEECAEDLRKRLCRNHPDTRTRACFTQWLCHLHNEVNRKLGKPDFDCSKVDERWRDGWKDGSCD

isogenic control (TIM10) = test: Yeast growth inhibition (MIC50), isogenic control (TIM10); format: cell-based; settings: Saccharomyces cerevisiae
Procedure: A primary screen was performed using freshly streaked tim10-1 diluted in YPD to an OD600 of approximately 0.0002 and kept on ice throughout the screening run. A Titertek multidrop (Huntsville, Ala.) was used dispense 40 μL of cell suspension to all wells of each clear 384-well plate (Greiner Bio One). After yeast suspension warmed to room temperature, a Biomek FX (Beckman Coulter) was used to pin transfer 0.5 μL of compound from 1 mM stock or DMSO to respective wells. Approximate screening concentration was 12.5 μM. All operations were performed by an automated plate scheduler to ensure consistency across the screening run. After completed compound transfer, all plates were incubated at 25° C. in a humidified incubator until the OD600 reached approximately 0.8 in the control wells; the control consisted of the tim10-1 mutant with the vehicle 1% DMSO. Each plate was shaken in a Beckman orbital shaker to resuspend settled cells, and the OD600 in each well was read by a Wallac Victor plate reader (Perkin Elmer). The top 600 growth inhibitory compounds were determined and assembled into two plates. Using a similar screening methodology, hit compounds were reconfirmed with the tim10-1 strain and growth inhibition was compared to the WT strain (TIM10) as well as the “rescued” strain (tim10-1 TIM10 that contained a copy of the wild-type TIM10 genes on a centromeric plasmid) strains. […]

Tim9-Tim10 complex = test: Crosslinking and immunoprecipitation of AAC with Tim9; format: biochemical, yeast; settings: 25 μM MitoBloCK-1; BMH crosslinker
Procedure: Crosslinking and immunoprecipitation experiments were derived from procedures previously utilized (3) with the inclusion of MitoBloCK-1 or DMSO. Following import, a portion of the reaction was subjected to crosslinking with 0.5 mM bis-maleimidohexane (BMH) for 30 minutes on ice. After quenching crosslinking reactions with 1 mM β-mercaptoethanol, a fraction of each sample was subjected to immunoprecipitation with polyclonal antibodies against either Tim9, Tom22, or Tom40. For each immunoprecipitation, 20 μL of antisera was bound to […], of protein A-sepharose slurry according to established protocols (Murphy M P, et al., (2001), Mol Cell Biol 21:6132-6138).

HeLa cells = test: MTT cell viability assay in HeLa cells (MitoBloCK-1); format: cell-based; settings: 25 μM and 50 μM, 24 hours
Procedure: Measurements of cell viability/toxicity were made with a MTT based toxicology assay kit (Sigma-Aldrich). HeLa cells were grown in 24-well tissue culture dishes to 80% confluency. […] Following drug treatment, cells were rinsed with phosphate buffered saline and incubated with complete media with MTT solution supplement for additional 4 hours as described in manufacturer's protocols. This media was removed and 500 μL of MTT solubilization solution was added to dissolve the formazan crystals. The formazan absorbance was measured at OD=570 nm on a Wallac Victor plate reader (Perkin Elmer) along with a turbidity measurement at OD=630 nm. After turbidity subtraction, the percent viability of each cell sample was calculated as: [(absorbance of vehicle treated cells−absorbance of drug treated cells)/(absorbance of vehicle treated cells)]×100.

[1] = system: tim10-1 tim9S suppressor strain; test: Yeast growth inhibition (MIC50), tim10-1 tim9S suppressor strain; format: cell-based; settings: Saccharomyces cerevisiae; disrupted for prd5 and snq2
[2] = system: tim10-1 tim9S mitochondria; test: Respiration (oxygen electrode) of tim10-1 tim9S mitochondria; format: biochemical, yeast; settings: NADH; 25 μM MitoBloCK-1; CCCP as control
Procedure: Oxygen consumption of […] mitochondria was measured using methods previously described (8). Briefly, purified […] mitochondria aliquots (25 mg/mL) were thawed on ice and tested within 2 hours. A Clark-type oxygen electrode in a stirred, thermostatically controlled 1.5-ml chamber at 25° C. (Oxytherm; Hansatech) facilitated measurement. […] Consumption rate was monitored for approximately 2 min.

tim9-3 mutant = test: Yeast growth inhibition (MIC50), tim9-3 mutant; format: cell-based; settings: Saccharomyces cerevisiae; disrupted for prd5 and snq2

| SMILES | morphology and viability in HEK293 cells (HEK293 cells) | MIC50 (Δpdr5Δsnq2 yeast strain) | IC50 (ALR) | MIC50 (isogenic control (TIM10)) | crosslinked Tim9-AAC product after immunoprecipitation (Tim9-Tim10 complex) | cell viability (MTT) (HeLa cells) | MIC50 [1] | rate of respiration [2] | MIC50 (tim9-3 mutant) |
| --- | --- | --- | --- | --- | --- | --- | --- | --- | --- |
| Oc1c(Cl)cc(Cl)cc1/C=N/c1ccc(Nc2ccccc2)cc1 [MitoBloCK-6] | showed similar results | 15.2 µM (≈ 5.43 µg/mL) | 700 nM | – | – | – | – | – | – |
| NC(=S)N/N=C/c1c(O)c(Br)cc2oc3c(c12)CCCC3 [MitoBloCK-1] | – | – | – | > 200 µM | decreased | significantly decreased in a dose-responsive manner | 10 µM (≈ 3.68 µg/mL) | did not significantly alter the rate of respiration | 11 µM (≈ 4.05 µg/mL) |
